# In patent publication US20230241041A1, “LURBINECTEDIN IN THE TREATMENT OF MALIGNANT MESOTHELIOMA” (PHARMA MAR, S.A., priority 2019, published 2023):
# B1: G-CSF: granulocyte colony-stimulating factor, given as prophylaxis for leucopenia/febrile neutropenia (protein, UniProt P09919 31-207, looked up)
# Granulocyte …: TPLGPASSLPQSFLLKCLEQVRKIQGDGAALQEKLVSECATYKLCHPEELVLLGHSLGIPWAPLSSCPSQALQLAGCLSQLHSGLFLYQGLLQALEGISPELGPTLDTLQLDVADFATTIWQQMEELGMAPALQPTQGAMPAFASAFQRRAGGVLVASHLQSFLEVSYRVLRHLAQP
# What was measured:
# [1] = Phase II trial of lurbinectedin monotherapy: adverse events (NCI CTCAE v4.03) and tolerability; assay type: in vivo
# Excerpt: (§1) The primary endpoint was progression-free survival at 12 weeks (PFS12wks), defined as the absence of progression or death due to any cause during the first 12 weeks (±2 weeks) after registration. Secondary endpoints included progression-free survival (PFS), defined as the time from registration until radiologic progression or death due to any cause, whichever occurs first; overall survival (OS), defined as the time from registration until death due to any cause; objective response rate (ORR), defined as the proportion of patients who achieved complete (CR) or partial remission (PR) during the trial treatment; disease control rate (DCR) defined as the sum of CR, PR and stable disease (SD) at least for 12 weeks (SD≥12wks); duration of disease control, defined as the time from registration to progression or death due to any cause whichever occurs first for patients who had CR, PR or SD≥12wks; and adverse events (AE). All AEs were assessed according to NCI CTCAE v4.03. Patients lost to follow-up were censored at the last date they were known to be alive.
# […] Standard antiemetic prophylaxis (corticosteroids or serotonin (5-HT3) antagonists) was administered prior to chemotherapy. […] In case of third re-emergence of Grade 3-4 toxicity treatment was permanently discontinued. Specifically for leucopenia Grade 3-4 and/or febrile neutropenia there was mandatory secondary G-CSF prophylaxis together with dose reduction by one level.
# (§2) Patients were followed clinically and with laboratory tests at time of chemotherapy administration and additionally with contrast enhanced CT- or PET/CT scans every 6 weeks. […] In case of treatment discontinuation for any reason, adverse events were reported for 30 days after last treatment application. For those cases where lurbinectedin was stopped without manifest progression radiology scans were performed every 8 weeks during the follow-up period otherwise patients were followed-up via telephone every 12 weeks for survival status.
# [2] = system: progressive malignant pleural mesothelioma (MPM); assay: Phase II single-arm, multi-centric trial of lurbinectedin monotherapy: efficacy (PFS, OS, response); assay type: in vivo, human
# Description: In order to evaluate the efficacy of lurbinectedin in the treatment of progressive malignant pleural mesothelioma (MPM), a Phase II single-arm, multi-centric, international trial was performed.
# as §1
# This trial was conducted in 6 centers in Switzerland and 3 in Italy. Subjects enrolled in this clinical trial were adult (age ≥ 18 years) patients having histologically or cytologically confirmed MPM, an Eastern Cooperative Oncology Group (ECOG) status of 0-1 and had progressed on or after one line of platinum-pemetrexed chemotherapy without being amenable to local treatment. Further inclusion criteria required an adequate hepatic, renal and bone marrow function (absolute neutrophil count ≥ 2 × 10^9 /L, platelet count ≥ 100 × 10^9 /L; aspartate aminotransferase and alanine aminotransferase ≤ 3.0 × ULN; creatinine clearance ≥ 30 mL/min/1.73).
# Eligible patients could additionally have received one prior line of immunotherapy, but more than one lines of chemotherapy, including pemetrexed rechallenge, were not allowed. Further exclusion criteria covered known brain metastases or leptomeningeal disease, history of other hematologic or primary solid tumors within five years prior to registration (with the exception of curatively treated basal or squamous cell carcinoma of the skin, properly treated in situ malignant melanoma, in situ carcinoma of the uterine cervix or pT1-2 prostate cancer with Gleason score ≤6), concomitant use of anti-cancer surgery or radiotherapy (except for local pain control or pleurodesis) and adverse events Grade ≥2 derived from previous treatment.
# Lurbinectedin was given every 3 weeks at a dose of 3.2 mg/m^2 as a 1-hour intravenous infusion through peripheral or central lines. Standard antiemetic prophylaxis (corticosteroids or serotonin (5-HT3) antagonists) was administered prior to chemotherapy. […] In case of third re-emergence of Grade 3-4 toxicity treatment was permanently discontinued. Specifically for leucopenia Grade 3-4 and/or febrile neutropenia there was mandatory secondary G-CSF prophylaxis together with dose reduction by one level.
# as §2
# A Simon two-stage design was used as presented by Simon R. (Control Clin Trials. 1989 Mar;10(1):1-10). We had set our null-hypothesis p0 at PFS12wks ≤35%, translated to a median PFS of ≤ 2 months. […]
molecule,measurement,setting,value
COc1ccc2[nH]c3c(c2c1)CCN[C@]31CS[C@@H]2c3c(OC(C)=O)c(C)c4c(c3[C@H](COC1=O)N1[C@@H]2[C@H]2c3c(cc(C)c(OC)c3O)C[C@@H]([C@@H]1O)N2C)OCO4 (stereo in doubt) [lurbinectedin],AEs,"[1]; Grade 5, N = 42",0 (0.0%) n (%)
same,Lurbinectedin-related AEs,"[1]; Grade 5, N = 42",0.0 (0.0%) n (%)
same,treatment-related death,[1]; N=42,no treatment-related death
same,"Abdominal pain, lurbinectedin-related AE","[1]; human, in vivo",1 (2.4%) n (%)
same,"Alkaline phosphatase increased, lurbinectedin-related AE","[1]; human, in vivo",1 (2.4%) n (%)
same,"Aspartate aminotransferase increased, lurbinectedin-related AE","[1]; human, in vivo",2 (4.8%) n (%)
same,"Blood bilirubin increased, lurbinectedin-related AE","[1]; human, in vivo",3 (7.1%) n (%)
same,"Cholangitis, lurbinectedin-related AE","[1]; human, in vivo",1 (2.4%) n (%)
same,"Confusion, lurbinectedin-related AE","[1]; human, in vivo",1 (2.4%) n (%)
same,"Cough, lurbinectedin-related AE","[1]; human, in vivo",1 (2.4%) n (%)
same,"Creatinine increased, lurbinectedin-related AE","[1]; human, in vivo",1 (2.4%) n (%)
same,"Diarrhea, lurbinectedin-related AE","[1]; human, in vivo",3 (7.1%) n (%)
same,"Dizziness, lurbinectedin-related AE","[1]; human, in vivo",2 (4.8%) n (%)
same,"Dry skin, lurbinectedin-related AE","[1]; human, in vivo",2 (4.8%) n (%)
same,"Dysgeusia, lurbinectedin-related AE","[1]; human, in vivo",1 (2.4%) n (%)
same,"Dyspepsia, lurbinectedin-related AE","[1]; human, in vivo",1 (2.4%) n (%)
same,"Dysphagia, lurbinectedin-related AE","[1]; human, in vivo",1 (2.4%) n (%)
same,"Edema limbs, lurbinectedin-related AE","[1]; human, in vivo",1 (2.4%) n (%)
same,"Febrile neutropenia, lurbinectedin-related AE","[1]; human, in vivo",4 (9.5%) n (%)
same,"Flu like symptoms, lurbinectedin-related AE","[1]; human, in vivo",1 (2.4%) n (%)
same,"Halitosis, lurbinectedin-related AE","[1]; human, in vivo",1 (2.4%) n (%)
same,"Headache, lurbinectedin-related AE","[1]; human, in vivo",1 (2.4%) n (%)
same,"Hypertension, lurbinectedin-related AE","[1]; human, in vivo",1 (2.4%) n (%)
same,"Hypomagnesemia, lurbinectedin-related AE","[1]; human, in vivo",5 (11.9%) n (%)
same,"Infection of unknown origin, lurbinectedin-related AE","[1]; human, in vivo",1 (2.4%) n (%)
same,"Infections with unknown origine, lurbinectedin-related AE","[1]; human, in vivo",1 (2.4%) n (%)
same,"Insomnia, lurbinectedin-related AE","[1]; human, in vivo",1 (2.4%) n (%)
same,"Lung infection, lurbinectedin-related AE","[1]; human, in vivo",1 (2.4%) n (%)
same,"Memory impairment, lurbinectedin-related AE","[1]; human, in vivo",1 (2.4%) n (%)
same,"Pancytopenia, lurbinectedin-related AE","[1]; human, in vivo",1 (2.4%) n (%)
same,"Productive cough, lurbinectedin-related AE","[1]; human, in vivo",1 (2.4%) n (%)
same,"Skin infection, lurbinectedin-related AE","[1]; human, in vivo",1 (2.4%) n (%)
same,"Superficial thrombophlebitis, lurbinectedin-related AE","[1]; human, in vivo",1 (2.4%) n (%)
same,"Urea increased, lurbinectedin-related AE","[1]; human, in vivo",1 (2.4%) n (%)
same,"Vertigo, lurbinectedin-related AE","[1]; human, in vivo",1 (2.4%) n (%)
same,"Watering eyes, lurbinectedin-related AE","[1]; human, in vivo",1 (2.4%) n (%)
same,"Weight loss, lurbinectedin-related AE","[1]; human, in vivo",2 (4.8%) n (%)
same,"White blood cell decreased, lurbinectedin-related AE","[1]; human, in vivo",3 (7.1%) n (%)
same,all other Grade 3-4 lurbinectedin-related toxicities,"[1]; human, in vivo",< 10%
same,dose reductions for which AEs were the reason,"[1]; human, in vivo",91.7%
same,"fatigue, lurbinectedin-related AE Grade 3-4","[1]; human, in vivo",16.7%
same,febrile neutropenia,"[1]; human, in vivo",9.5%
same,"herpes zoster, lurbinectedin-related AE","[1]; human, in vivo",1 (2.4%) n (%)
same,"neutropenia, lurbinectedin-related AE Grade 3-4","[1]; human, in vivo",23.8%
same,patients showing no lurbinectedin-related AEs,"[1]; human, in vivo",AE: adverse event; ^1: 4 patients (9.5%) showed no lurbinectedin-related AEs
same,patients with at least one adverse event (AE) of any grade,"[1]; human, in vivo",100%
same,patients with at least one dose reduction,"[1]; human, in vivo",28.6%
same,patients with lurbinectedin-related AEs Grade 3-4,"[1]; human, in vivo",47.6%
same,patients with treatment delayed at least once,"[1]; human, in vivo",50%
same,patients with treatment related AEs (any grade),"[1]; human, in vivo",90.5%
same,patients with two dose reductions,"[1]; human, in vivo",2/42
same,treatment delay caused by AEs,"[1]; human, in vivo",26.2%
same,"Mucositis oral, lurbinectedin-related AE","[1]; human, in vivo, po",1 (2.4%) n (%)
same,treatment discontinuation due to toxicity,[1]; in vivo,no treatment discontinuation due to toxicity
same,patients with disease control lasting for 8 months or longer,[2]; 6/22 patients,27.3%
same,median OS,[2]; <6 months progression-free interval on prior pemetrexed,8.8 months
same,median OS,[2]; >=6 months progression-free interval on prior pemetrexed,13.3 months
same,PFS12wks,[2]; additional prior immunotherapy,70%
same,median OS,[2]; additional prior immunotherapy,10.4 months
same,median PFS,[2]; additional prior immunotherapy,3.2 months
same,DCR,[2]; all 42 patients,52.4%
same,ORR,[2]; all 42 patients,4.8%
same,complete remission (CR),[2]; all 42 patients,One
same,partial remission (PR),[2]; all 42 patients,one
same,stable disease,[2]; all 42 patients,20 patients
same,PFS12wks (primary endpoint) reached,"[2]; all patients, 22/42, 90% CI 38.7-63.5, p=0.015",52.4%
same,"PFS12wks, Kaplan-Meier method at 12 weeks","[2]; all patients, 90% CI 49.7-74.4",63.5%
same,median PFS,"[2]; all patients, 95% CI 2.6-5.5, median follow-up 14.9 months",4.1 months
same,9 months PFS%,"[2]; all patients, 95% CI 4.7-24.9",12.7%
same,median OS,"[2]; all patients, 95% CI 8.8-14.7",11.1 months
same,6 months PFS%,"[2]; all patients, 95% CI 17.1-44.9",30.5%
same,12 months OS,"[2]; all patients, 95% CI 28.1-60.3",44.9%
same,3 months PFS%,"[2]; all patients, 95% CI 41.8-71.7",58.4%
same,6 months OS,"[2]; all patients, 95% CI 57.7-84.6",73.8%
same,PFS12wks,[2]; epithelioid histology,63.6%
same,median OS,[2]; epithelioid histology,12.4 months
same,median PFS,[2]; epithelioid histology,4.1 months
same,PFS12wks reached (interim analysis),"[2]; first 21 patients, Simon 2-stage, 11 patients",52.4%
same,PFS12wks,[2]; non-epithelioid histology,62.5%
same,median OS,[2]; non-epithelioid histology,10.0 months
same,median PFS,[2]; non-epithelioid histology,3.7 months
same,patients who had died at the time of analyses,"[2]; of 42, progression 23, viral pneumonitis 1, suicide 1, heart failure 1",26 patients
same,median duration of disease control,"[2]; patients with CR, PR or SD>=12wks, 95% CI 5.2-7.4",6.6 months
same,PFS12wks,[2]; prior chemotherapy alone,61.4%
same,median OS,[2]; prior chemotherapy alone,11.9 months
same,median PFS,[2]; prior chemotherapy alone,4.1 months
same,median PFS,[2]; progressed on previous platinum-pemetrexed in >=6 months,4.3 months
same,PFS12wks,[2]; progressed on previous platinum-pemetrexed in >=6 months (28 patients),67.9%
same,median PFS,[2]; progressed on previous platinum-pemetrexed within <6 months,3.0 months
same,PFS12wks,[2]; progressed on previous platinum-pemetrexed within <6 months (14 patients),53.8%
B1,incidence of grade 3-4 neutropenia,[1]; G-CSF given in patients on lurbinectedin,diminished
